Active and inactive are the calls of the source. No cut-off for these calls is given here.
Legend:
[1] = Half life in Sprague-Dawley rat at 25 mg/kg,po administration by LC-MS/MS analysis; assay type: ADME, organism-based; details: in vivo
[2] = Acute toxicity in Kunming mouse assessed as body weight loss at 100 mg/kg,ip administration measured after 14 days; assay type: organism-based; details: in vivo, 336 h, time 14 day
[3] = Acute toxicity in Kunming mouse assessed as pathological change in heart at 100 mg/kg,ip administration measured after 14 days by hematoxylin and eosin staining based microscopic analysis; assay type: organism-based; details: in vivo, 336 h, time 14 day
[4] = Acute toxicity in Kunming mouse assessed as effect on urea level in kidney at 100 mg/kg,ip administration measured after 14 days; assay type: organism-based; details: in vivo, 336 h, time 14 day
SK-HEP1 [5] = assay: Inhibition of cell migration in human SK-HEP1 cells at 10 uM incubated for 24 hrs by wound healing assay; assay type: functional, cell-based
SK-HEP1 [6] = assay: Inhibition of cell migration in human SK-HEP1 cells at 10 uM incubated for 24 hrs by transwell assay; assay type: functional, cell-based
HCCLM3 [7] = assay: Antiproliferative activity against human HCCLM3 cells cultured as 2D cells assessed as inhibition of cell growth at 10 uM incubated for 72 hrs by CCK-8 assay; assay type: functional, cell-based
[8] = Half life in Sprague-Dawley rat at 10 mg/kg,iv administration by LC-MS/MS analysis; assay type: ADME, organism-based; details: in vivo
HCCLM3 [9] = assay: Antiproliferative activity against human HCCLM3 cells assessed as downregulation of SMAD3 phosphorylation incubated for 24 hrs by Western blotting analysis; assay type: functional, cell-based
HCCLM3 [10] = assay: Antiproliferative activity against human HCCLM3 cells cultured as 3D cells assessed as inhibition of colony formation at 25 uM incubated for 21 days by 3D soft-agar based microscopic analysis; assay type: functional, cell-based; details: time 21.0 day
[11] = Oral bioavailability in Sprague-Dawley rat at 25 mg/kg administration by LC-MS/MS analysis; assay type: ADME, organism-based; details: in vivo
SK-HEP1 [12] = assay: Antiproliferative activity against human SK-HEP1 cells cultured as 3D cells assessed as inhibition of cell growth at 25 uM incubated for 72 hrs by CellTiter-Lumi assay; assay type: functional, cell-based
[13] = Cmax in Sprague-Dawley rat at 10 mg/kg,iv administration by LC-MS/MS analysis; assay type: ADME, organism-based; details: in vivo
HCCLM3 [14] = assay: Inhibition of cell migration in TARBP2-knockout human HCCLM3 cells at 1 to 25 uM incubated for 24 hrs by transwell assay; assay type: functional, cell-based; details: dose 1-25 µM
[15] = Acute toxicity in Kunming mouse assessed as pathological change in spleen at 100 mg/kg,ip administration measured after 14 days by hematoxylin and eosin staining based microscopic analysis; assay type: organism-based; details: in vivo, 336 h, time 14 day
[16] = Clearance in Sprague-Dawley rat at 10 mg/kg,iv administration by LC-MS/MS analysis; assay type: ADME, organism-based; details: in vivo
[17] = MRT (0 to infinity) in Sprague-Dawley rat at 25 mg/kg,po administration by LC-MS/MS analysis; assay type: ADME, organism-based; details: in vivo
SK-HEP1 [18] = assay: Antiproliferative activity against human SK-HEP1 cells cultured as 2D cells assessed as inhibition of cell growth at 10 uM incubated for 72 hrs by CCK-8 assay; assay type: functional, cell-based
[19] = Acute toxicity in Kunming mouse assessed as effect on uric acid level in kidney at 100 mg/kg,ip administration measured after 14 days; assay type: organism-based; details: in vivo, 336 h, time 14 day
[20] = Acute toxicity in Kunming mouse assessed as effect on total bilirubin level in liver at 100 mg/kg,ip administration measured after 14 days; assay type: organism-based; details: in vivo, 336 h, time 14 day
SK-HEP1 [21] = assay: Antiproliferative activity against TARBP2-knockout human SK-HEP1 cells cultured as 3D cells assessed as inhibition of cell growth at 25 uM incubated for 72 hrs by CellTiter-Lumi assay; assay type: functional, cell-based
HCCLM3 [22] = assay: Inhibition of cell migration in human HCCLM3 cells at 10 uM incubated for 24 hrs by transwell assay; assay type: functional, cell-based
HCCLM3 [23] = assay: Antiproliferative activity against TARBP2-knockout human HCCLM3 cells cultured as 3D cells assessed as inhibition of cell growth at 25 uM incubated for 72 hrs by CellTiter-Lumi assay; assay type: functional, cell-based
HCCLM3 [24] = assay: Antiproliferative activity against human HCCLM3 cells assessed as upregulation of SMAD7 expression incubated for 24 hrs by Western blotting analysis; assay type: functional, cell-based
[25] = Acute toxicity in Kunming mouse assessed as effect on creatinine level in kidney at 100 mg/kg,ip administration measured after 14 days; assay type: organism-based; details: in vivo, 336 h, time 14 day
[26] = MRT (0 to t) in Sprague-Dawley rat at 25 mg/kg,po administration by LC-MS/MS analysis; assay type: ADME, organism-based; details: in vivo
[27] = MRT (0 to infinity) in Sprague-Dawley rat at 10 mg/kg,iv administration by LC-MS/MS analysis; assay type: ADME, organism-based; details: in vivo
[28] = MRT (0 to t) in Sprague-Dawley rat at 10 mg/kg,iv administration by LC-MS/MS analysis; assay type: ADME, organism-based; details: in vivo
[29] = AUC (0 to infinity) in Sprague-Dawley rat at 25 mg/kg,po administration by LC-MS/MS analysis; assay type: ADME, organism-based; details: in vivo
[30] = Acute toxicity in Kunming mouse assessed as animal death at 100 mg/kg,ip administration measured after 14 days; assay type: organism-based; details: in vivo, 336 h, time 14 day
[31] = Acute toxicity in Kunming mouse assessed as pathological change in lung at 100 mg/kg,ip administration measured after 14 days by hematoxylin and eosin staining based microscopic analysis; assay type: organism-based; details: in vivo, 336 h, time 14 day
[32] = Acute toxicity in Kunming mouse assessed as effect on creatine kinase level in heart at 100 mg/kg,ip administration measured after 14 days; assay type: organism-based; details: in vivo, 336 h, time 14 day
[33] = Acute toxicity in Kunming mouse assessed as effect on ALT level in liver at 100 mg/kg,ip administration measured after 14 days; assay type: organism-based; details: in vivo, 336 h, time 14 day
[34] = AUC (0 to t) in Sprague-Dawley rat at 10 mg/kg,iv administration by LC-MS/MS analysis; assay type: ADME, organism-based; details: in vivo
HCCLM3 [35] = assay: Inhibition of cell migration in human HCCLM3 cells at 10 uM incubated for 24 hrs by wound healing assay; assay type: functional, cell-based
HCCLM3 [36] = assay: Antiproliferative activity against human HCCLM3 cells cultured as 3D cells assessed as inhibition of cell growth at 10 uM incubated for 72 hrs by CellTiter-Lumi assay; assay type: functional, cell-based
[37] = Acute toxicity in Kunming mouse assessed as pathological change in kidney at 100 mg/kg,ip administration measured after 14 days by hematoxylin and eosin staining based microscopic analysis; assay type: organism-based; details: in vivo, 336 h, time 14 day
HCCLM3 [38] = assay: Antiproliferative activity against human HCCLM3 cells cultured as 3D cells assessed as inhibition of cell growth at 25 uM incubated for 72 hrs by CellTiter-Lumi assay; assay type: functional, cell-based
[39] = Cmax in Sprague-Dawley rat at 25 mg/kg,po administration by LC-MS/MS analysis; assay type: ADME, organism-based; details: in vivo
SK-HEP1 [40] = assay: Inhibition of cell migration in human SK-HEP1 cells incubated for 24 hrs by transwell assay; assay type: functional, cell-based
[41] = Acute toxicity in Kunming mouse assessed as effect on AST level in liver at 100 mg/kg,ip administration measured after 14 days; assay type: organism-based; details: in vivo, 336 h, time 14 day
[42] = Volume of distribution at steady state in Sprague-Dawley rat at 10 mg/kg,iv administration by LC-MS/MS analysis; assay type: ADME, organism-based; details: in vivo, read-out: Vdss
[43] = Acute toxicity in Kunming mouse assessed as effect on direct bilirubin level in liver at 100 mg/kg,ip administration measured after 14 days; assay type: organism-based; details: in vivo, 336 h, time 14 day
Homo sapiens = species on record: Homo sapiens; assay: Inhibition of recombinant human TRBP/recombinant human Dicer protein protein interaction at 25 uM by indirect-competition-ELISA

Cc1nc(-c2ccc(N3CCOCC3)cc2)sc1C(=O)O
half-life [1]: 3.28 h
Activity [2]: Non-toxic
Activity [3]: Non-toxic
Activity [4]: Non-toxic
inhibition (SK-HEP1 [5]): Active
inhibition (SK-HEP1 [6]): Active
Activity (HCCLM3 [7]): inactive
half-life [8]: 3.57 h
Activity (HCCLM3 [9]): Dose-dependent-effect
Activity (HCCLM3 [10]): Active
bioavailability [11]: 53.9%
Activity (SK-HEP1 [12]): Active
Cmax [13]: 45900 ng/mL
inhibition (HCCLM3 [14]): inactive
Activity [15]: Non-toxic
clearance [16]: 4.6 mL/min/kg
MRT inf [17]: 3.7 h
Activity (SK-HEP1 [18]): inactive
Activity [19]: Non-toxic
Activity [20]: Non-toxic
Activity (SK-HEP1 [21]): inactive
inhibition (HCCLM3 [22]): Active
Activity (HCCLM3 [23]): inactive
Activity (HCCLM3 [24]): Dose-dependent-effect
Activity [25]: Non-toxic
MRT last [26]: 3.5 h
MRT inf [27]: 1.8 h
MRT last [28]: 1.7 h
AUC(0-inf) [29]: 50600 ng·h/mL
Activity [30]: Non-toxic
Activity [31]: Non-toxic
Activity [32]: Non-toxic
Activity [33]: Non-toxic
AUC(0-t) [34]: 37400 ng·h/mL
inhibition (HCCLM3 [35]): Active
Activity (HCCLM3 [36]): Active
Activity [37]: Non-toxic
Activity (HCCLM3 [38]): Active
Cmax [39]: 19800 ng/mL
inhibition (SK-HEP1 [40]): Dose-dependent-effect
Activity [41]: Non-toxic
Vd [42]: 0.496 L/kg
Activity [43]: Non-toxic
inhibition (Homo sapiens): Active

CCOc1ccc(-c2nc(C)c(C(=O)O)s2)cc1
half-life [1]: 2.7 h
Activity [2]: Non-toxic
Activity [3]: Non-toxic
Activity [4]: Non-toxic
inhibition (SK-HEP1 [5]): Active
inhibition (SK-HEP1 [6]): Active
Activity (HCCLM3 [7]): inactive
half-life [8]: 1.6 h
Activity (HCCLM3 [9]): Dose-dependent-effect
Activity (HCCLM3 [10]): Active
bioavailability [11]: 11%
Activity (SK-HEP1 [12]): Active
Cmax [13]: 34900 ng/mL
inhibition (HCCLM3 [14]): inactive
Activity [15]: Non-toxic
clearance [16]: 17.1 mL/min/kg
MRT inf [17]: 3.9 h
Activity (SK-HEP1 [18]): inactive
Activity [19]: Non-toxic
Activity [20]: Non-toxic
Activity (SK-HEP1 [21]): inactive
inhibition (HCCLM3 [22]): Active
Activity (HCCLM3 [23]): inactive
Activity (HCCLM3 [24]): Dose-dependent-effect
Activity [25]: Non-toxic
MRT last [26]: 2.6 h
MRT inf [27]: 0.2 h
MRT last [28]: 0.1 h
AUC(0-inf) [29]: 3080 ng·h/mL
Activity [30]: Non-toxic
Activity [31]: Non-toxic
Activity [32]: Non-toxic
Activity [33]: Non-toxic
AUC(0-t) [34]: 9730 ng·h/mL
inhibition (HCCLM3 [35]): Active
Activity (HCCLM3 [36]): Active
Activity [37]: Non-toxic
Activity (HCCLM3 [38]): Active
Cmax [39]: 2210 ng/mL
inhibition (SK-HEP1 [40]): Dose-dependent-effect
Activity [41]: Non-toxic
Vd [42]: 0.161 L/kg
Activity [43]: Non-toxic
inhibition (Homo sapiens): Active

Source: ChEMBL document CHEMBL6087465, “Design, Synthesis, and Antitumor Activity Evaluation of 2-Phenylthiazole-5-Carboxylic Acid Derivatives Targeting Transactivation Response RNA-Binding Protein 2” (J Med Chem, 2025)
